Results: PubChem BioAssay AID248 (DTP/NCI, 2004)
Inconclusive results and toxic doses are left out.

System: L1210 leukemia ip in BDF1 mice, survival T/C
Assay: NCI In Vivo Anticancer Drug Screen. Data for tumor model L1210 Leukemia (intraperitoneal) in B6D2F1 (BDF1) mice
Conditions: endpoint: mean survival time, higher = longer survival
How it was run: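 Tumor was transplanted into mice, which were then dosed with test compound or vehicle alone. Survival was recorded for each group, and the treated figure was expressed relative to the control figure.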

[1] = dose: 100.0 mg/kg/injection, schedule: Q01DX009 (ip), vehicle: saline with Tween-80
[2] = dose: 100.0 mg/kg/injection, schedule: Q04DX003 (ip), vehicle: saline with Tween-80
[3] = dose: 200.0 mg/kg/injection, schedule: Q01DX009 (ip), vehicle: saline with Tween-80
[4] = dose: 200.0 mg/kg/injection, schedule: Q04DX003 (ip), vehicle: saline with Tween-80
[5] = dose: 400.0 mg/kg/injection, schedule: Q04DX003 (ip), vehicle: saline with Tween-80

C1OCC(C2OCOC3COCOC32)O1 (stereo not given)
T/C (dose: 100.0 mg/kg/injection, schedule: Q04DX003 (ip), vehicle: Klucel (hydroxypropylcellulose) (HPC)): 98 % of control
T/C (dose: 200.0 mg/kg/injection, schedule: Q04DX003 (ip), vehicle: Klucel (hydroxypropylcellulose) (HPC)): 95 % of control
T/C (dose: 400.0 mg/kg/injection, schedule: Q04DX003 (ip), vehicle: Klucel (hydroxypropylcellulose) (HPC)): 95 % of control

CC(OC(=O)Nc1ccccc1)C(=O)O (stereo not given)
T/C [1]: 92 % of control
T/C [2]: 96 % of control
T/C [3]: 92 % of control
T/C [4]: 101 % of control
T/C (dose: 400.0 mg/kg/injection, schedule: Q01DX009 (ip), vehicle: saline with Tween-80): 95 % of control
T/C [5]: 96 % of control

CCOC(=O)CC(C(=O)O)=C(c1ccccc1)c1ccccc1
T/C (dose: 50.0 mg/kg/injection, schedule: Q01DX001 (ip), vehicle: carboxymethylcellulose (CMC)): 98 % of control
T/C (dose: 100.0 mg/kg/injection, schedule: Q01DX001 (ip), vehicle: carboxymethylcellulose (CMC)): 98 % of control
T/C (dose: 200.0 mg/kg/injection, schedule: Q01DX001 (ip), vehicle: carboxymethylcellulose (CMC)): 93 % of control
T/C (dose: 400.0 mg/kg/injection, schedule: Q01DX001 (ip), vehicle: carboxymethylcellulose (CMC)): 93 % of control

CC(=O)NC(C)Cc1ccc2c(c1)OCO2 (stereo not given)
T/C (dose: 100.0 mg/kg/injection, schedule: Q01DX009 (ip), vehicle: Klucel (hydroxypropylcellulose) (HPC)): 102 % of control
T/C (dose: 200.0 mg/kg/injection, schedule: Q01DX009 (ip), vehicle: Klucel (hydroxypropylcellulose) (HPC)): 107 % of control

CN(C)C1C2C(CS2(=O)=O)C1(C)C (stereo not given)
T/C (dose: 75.0 mg/kg/injection, schedule: Q01DX001 (ip), vehicle: carboxymethylcellulose (CMC)): 100 % of control
T/C (dose: 150.0 mg/kg/injection, schedule: Q01DX001 (ip), vehicle: carboxymethylcellulose (CMC)): 100 % of control

O=NN(CCCl)C(=O)N[C@H]1CCC[C@@H](C(=O)O)C1
T/C (dose: 18.0 mg/kg/injection, schedule: Q01DX001 (ip), vehicle: Klucel (hydroxypropylcellulose) (HPC)): 353 % of control
T/C (dose: 26.0 mg/kg/injection, schedule: Q01DX001 (ip), vehicle: Klucel (hydroxypropylcellulose) (HPC)): 426 % of control
T/C (dose: 40.0 mg/kg/injection, schedule: Q01DX001 (ip), vehicle: Klucel (hydroxypropylcellulose) (HPC)): 275 % of control
T/C (dose: 60.0 mg/kg/injection, schedule: Q01DX001 (ip), vehicle: Klucel (hydroxypropylcellulose) (HPC)): 216 % of control

O=C1c2cc(-c3ccccc3)ccc2C(c2ccccc2)C1NC1CCCCC1 (stereo not given)
T/C (dose: 37.5 mg/kg/injection, schedule: Q01DX001 (ip), vehicle: Klucel (hydroxypropylcellulose) (HPC)): 89 % of control
T/C (dose: 75.0 mg/kg/injection, schedule: Q01DX001 (ip), vehicle: Klucel (hydroxypropylcellulose) (HPC)): 89 % of control
T/C (dose: 150.0 mg/kg/injection, schedule: Q01DX001 (ip), vehicle: Klucel (hydroxypropylcellulose) (HPC)): 89 % of control

CCOC(=O)/C(C#N)=C(\C)c1cccc(C)c1
T/C (dose: 25.0 mg/kg/injection, schedule: Q04DX003 (ip), vehicle: saline with Tween-80): 94 % of control
T/C (dose: 50.0 mg/kg/injection, schedule: Q04DX003 (ip), vehicle: saline with Tween-80): 94 % of control
T/C [2]: 102 % of control

O=C(O)/C=C/Sc1ccccc1
T/C (dose: 25.0 mg/kg/injection, schedule: Q04DX003 (ip), vehicle: Klucel (hydroxypropylcellulose) (HPC)): 104 % of control
T/C (dose: 50.0 mg/kg/injection, schedule: Q04DX003 (ip), vehicle: Klucel (hydroxypropylcellulose) (HPC)): 102 % of control

COC(=N\S(=O)(=O)c1ccccc1)/C(=N\S(=O)(=O)c1ccccc1)OC
T/C (dose: 100.0 mg/kg/injection, schedule: Q01DX001 (ip), vehicle: Klucel (hydroxypropylcellulose) (HPC)): 100 % of control
T/C (dose: 200.0 mg/kg/injection, schedule: Q01DX001 (ip), vehicle: Klucel (hydroxypropylcellulose) (HPC)): 104 % of control
T/C (dose: 400.0 mg/kg/injection, schedule: Q01DX001 (ip), vehicle: Klucel (hydroxypropylcellulose) (HPC)): 102 % of control

CCCCCCCCNC12CC3CC(CC(C3)C1)C2
T/C (dose: 3.12 mg/kg/injection, schedule: Q01DX009 (ip), vehicle: saline): 99 % of control
T/C (dose: 6.25 mg/kg/injection, schedule: Q01DX009 (ip), vehicle: saline): 89 % of control
T/C (dose: 12.5 mg/kg/injection, schedule: Q01DX009 (ip), vehicle: saline): 87 % of control
T/C (dose: 12.5 mg/kg/injection, schedule: Q04DX003 (ip), vehicle: saline): 110 % of control
T/C (dose: 25.0 mg/kg/injection, schedule: Q01DX009 (ip), vehicle: saline): 92 % of control
T/C (dose: 25.0 mg/kg/injection, schedule: Q04DX003 (ip), vehicle: saline): 109 % of control

CCCCCCCCCCCCOC(=O)OCCCCCCCCCCCC
T/C [1]: 91 % of control
T/C [2]: 97 % of control
T/C [3]: 91 % of control
T/C [4]: 101 % of control
T/C [5]: 101 % of control

CCC(C)C(CN)(CCCCN1CCOCC1)c1cccc2ccccc12 (stereo not given)
T/C [2]: 98 % of control
T/C [4]: 93 % of control
